According to patent EP0428423A2, “Aryloxy alkyl benzenes, processes for their preparation and pharmaceutical compositions containing them” (LIPHA S.A., priority 1989, dated 1991):
Like-named read-outs stand apart in the source and are kept apart here.

Experiments:
[1] = target: T1, ECHANGEUR D'ANIONS (Homo sapiens, UniProt P02730); assay: Anion exchanger of human erythrocytes; type: cell-based, ERYTHROCYTES HUMAINS; conditions: for IC50: read-out: EFFET SUR L'ECHANGEUR D'ANIONS IC 50
T1 construct: systèmes de transport du sodium et du potassium des érythrocytes humains; endogenous in cells; host or cells: human erythrocytes
T1 sequence (P02730 1-911): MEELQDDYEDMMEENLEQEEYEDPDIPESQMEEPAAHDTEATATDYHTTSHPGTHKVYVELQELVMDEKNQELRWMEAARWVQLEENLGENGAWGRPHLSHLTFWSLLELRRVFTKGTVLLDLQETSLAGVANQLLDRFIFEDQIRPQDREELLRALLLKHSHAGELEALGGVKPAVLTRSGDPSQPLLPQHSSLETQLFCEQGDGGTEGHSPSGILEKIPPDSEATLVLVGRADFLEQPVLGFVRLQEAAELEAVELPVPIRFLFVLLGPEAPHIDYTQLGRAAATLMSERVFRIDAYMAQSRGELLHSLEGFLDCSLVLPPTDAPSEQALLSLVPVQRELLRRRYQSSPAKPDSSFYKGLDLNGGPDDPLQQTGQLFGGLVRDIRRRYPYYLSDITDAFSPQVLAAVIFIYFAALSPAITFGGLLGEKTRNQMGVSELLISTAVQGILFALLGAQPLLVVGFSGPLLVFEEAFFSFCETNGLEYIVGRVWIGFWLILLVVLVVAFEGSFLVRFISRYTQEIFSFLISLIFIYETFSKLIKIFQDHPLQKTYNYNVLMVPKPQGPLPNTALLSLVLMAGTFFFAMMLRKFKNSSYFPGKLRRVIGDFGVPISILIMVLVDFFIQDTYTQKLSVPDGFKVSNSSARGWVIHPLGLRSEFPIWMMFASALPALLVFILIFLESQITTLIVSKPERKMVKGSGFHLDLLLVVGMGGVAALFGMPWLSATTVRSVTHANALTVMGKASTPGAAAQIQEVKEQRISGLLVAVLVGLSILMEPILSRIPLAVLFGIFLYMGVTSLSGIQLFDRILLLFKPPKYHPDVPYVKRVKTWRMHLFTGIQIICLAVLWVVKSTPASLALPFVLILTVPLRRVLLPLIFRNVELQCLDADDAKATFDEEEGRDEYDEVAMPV
Source text: Cet effet a été étudié selon la méthodologie décrite par G. GARAY et coll. dans Naunyn-Schmidberg's Arch. Pharmakol. 334 (1986) 202-209 et dans Bioch. Pharm. 33 (1984) 2013-2020.

[2] = system: SOURIS; assay: Diuretic activity in the mouse (hourly urine volume, sodium and potassium assay); type: in vivo; conditions: for minimal effective dose: Mus musculus, po, read-out: Dose minimale active; for Pouvoir diurétique en % / Rapport Na/K en %: PO, at the dose (minimal active dose)
Source text: (§1) d'urine sont déterminés toutes les heures. Le dosage de sodium et du potassium est effectué par spectrophotométrie.

[3] = system: RAT; assay: Diuretic activity in the rat (hourly urine volume, sodium and potassium assay); type: in vivo; conditions: for minimal effective dose: po, read-out: Dose minimale active; for Pouvoir diurétique en % / Rapport Na/K en %: PO, at the dose (minimal active dose)
Source text: as §1

[4] = target: T2, COTRANSPORT Na-K (Homo sapiens, UniProt P55011); assay: Na-K cotransport of human erythrocytes; type: cell-based, ERYTHROCYTES HUMAINS
T2 construct: systèmes de transport du sodium et du potassium des érythrocytes humains; endogenous in cells; host or cells: human erythrocytes
T2 sequence (P55011 1-1212): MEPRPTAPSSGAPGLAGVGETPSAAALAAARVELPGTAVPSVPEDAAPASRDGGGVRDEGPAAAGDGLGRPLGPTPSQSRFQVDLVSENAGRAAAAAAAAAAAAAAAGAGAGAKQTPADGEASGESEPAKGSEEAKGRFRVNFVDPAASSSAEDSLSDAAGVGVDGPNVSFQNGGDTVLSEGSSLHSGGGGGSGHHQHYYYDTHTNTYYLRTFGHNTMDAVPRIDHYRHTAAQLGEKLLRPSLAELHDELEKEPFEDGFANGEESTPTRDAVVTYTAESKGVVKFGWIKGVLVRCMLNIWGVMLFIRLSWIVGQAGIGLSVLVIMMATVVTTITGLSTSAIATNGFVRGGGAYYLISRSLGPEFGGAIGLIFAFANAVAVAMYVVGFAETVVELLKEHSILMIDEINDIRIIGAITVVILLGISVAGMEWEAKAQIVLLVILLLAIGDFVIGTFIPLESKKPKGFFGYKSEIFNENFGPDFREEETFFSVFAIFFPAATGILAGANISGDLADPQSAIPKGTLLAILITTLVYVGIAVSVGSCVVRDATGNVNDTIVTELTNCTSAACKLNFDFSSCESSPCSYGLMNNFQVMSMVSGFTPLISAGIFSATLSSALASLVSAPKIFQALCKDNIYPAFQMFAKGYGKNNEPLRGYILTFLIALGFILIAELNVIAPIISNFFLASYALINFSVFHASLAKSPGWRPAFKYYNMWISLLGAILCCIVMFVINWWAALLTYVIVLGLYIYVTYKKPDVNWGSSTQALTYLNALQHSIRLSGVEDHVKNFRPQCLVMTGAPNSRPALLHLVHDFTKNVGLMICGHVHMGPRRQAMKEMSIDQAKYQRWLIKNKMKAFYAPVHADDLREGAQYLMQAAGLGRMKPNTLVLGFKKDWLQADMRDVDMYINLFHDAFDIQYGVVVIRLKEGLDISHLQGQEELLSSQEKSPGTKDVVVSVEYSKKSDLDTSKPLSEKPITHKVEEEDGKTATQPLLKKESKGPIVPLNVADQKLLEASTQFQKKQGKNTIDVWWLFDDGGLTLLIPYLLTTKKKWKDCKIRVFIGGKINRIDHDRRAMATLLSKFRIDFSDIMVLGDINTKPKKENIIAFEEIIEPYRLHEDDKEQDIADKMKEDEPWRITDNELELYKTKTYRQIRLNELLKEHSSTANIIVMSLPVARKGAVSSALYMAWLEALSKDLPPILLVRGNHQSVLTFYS
Source text: Cet effet a été étudié selon la méthodologie décrite par G. GARAY et coll. dans Naunyn-Schmidberg's Arch. Pharmakol. […] Pharm.

[5] = system: plasmas riches en plaquettes provenant de sang de rat; assay: Platelet anti-aggregation in vitro, ADP-induced (Born aggregometer); type: cell-based
Method: Les études ont été réalisées sur des plasmas riches en plaquettes provenant de sang de rat, l'agrégation étant induite par addition d'acide Adénosine diphosphorique. Les courbes néphélométriques d'agrégation sont obtenues en utilisant un agrégomètre de type BORN, le plasma étant placé en incubation à 37° avec agitation continue de 1100 t/mn (cf. BORN G.V.R et CROSS J. - J. Physiol. 168 (1962) 178.

[6] = human erythrocytes, read-out: EFFET SUR LE COTRANSPORT Na-K IC 50
[7] = in vitro, aggregating agent ADP, rat platelet-rich plasma, 37°, M not defined in the text, mM printed only in the TICLOPIDINE line, read-out: M à 50

Structure (SMILES)	IC50 [1] [µM]	minimal effective dose ([3]; R = RAT, diuretic activity) [mg/kg]	IC50 [5, 7] [mM]	further results
CC(COc1ccc(F)cc1)c1ccccc1O (stereo not drawn) [ex 172]	75	25	0.95	minimal effective dose ([2]; S = SOURIS, diuretic activity): 100 mg/kg; IC50 [4, 6]: ~400 µM
C=CCOc1ccc(CCOc2ccccc2)c(O)c1 [Ex 64]			0.5	
Oc1c(CCOc2ccc(F)cc2)ccc2ccccc12 [ex 46]	200			Pouvoir diurétique en % ([2]; S = SOURIS): R : Inactif S : Inactif; Rapport Na/K en % ([2]; S = SOURIS): R : Inactif S : Inactif; Pouvoir diurétique en % ([3]; R = RAT): R : Inactif S : Inactif; Rapport Na/K en % ([3]; R = RAT): R : Inactif S : Inactif; IC50 [4, 6]: 95 µM
Oc1ccc(O)c(CCOc2ccc(F)cc2)c1 [Ex 102]			0.7	
Oc1ccccc1CCOc1ccc2ccccc2c1 [ex 56]	200		0.3	Pouvoir diurétique en % ([2]; S = SOURIS): R : Inactif S : Inactif; Rapport Na/K en % ([2]; S = SOURIS): R : Inactif S : Inactif; Pouvoir diurétique en % ([3]; R = RAT): R : Inactif S : Inactif; Rapport Na/K en % ([3]; R = RAT): R : Inactif S : Inactif; IC50 [4, 6]: 95 µM
Oc1ccccc1CCOc1ccccc1 [Ex 12]			1.6	
CCCCNc1cc(C(=O)O)cc(S(N)(=O)=O)c1Oc1ccccc1 [BUMETANIDE, reference compound]	300			IC50 [4]: 0.66 µM
Oc1cc2c(cc1CCOc1ccc(F)cc1)OCCO2 [ex 107]		25		minimal effective dose ([2]; S = SOURIS, diuretic activity): 100 mg/kg
Oc1ccccc1CCOc1ccc(F)cc1 [ex 30]	4	12	0.8	minimal effective dose ([2]; S = SOURIS, diuretic activity): 25 mg/kg; IC50 [4, 6]: 170 µM
Cc1ccc(CCOc2ccc(F)cc2)c(O)c1C [Ex 78]			0.7	
Oc1ccc(Oc2ccccc2)cc1CCOc1ccc(F)cc1 [Ex 100]			1.1	
COc1ccc(OC(C)=O)c(CCOc2ccc(F)cc2)c1 [ex 25]	120	12		minimal effective dose ([2]; S = SOURIS, diuretic activity): 25 mg/kg; IC50 [4, 6]: > 600 µM
O=C(Oc1ccccc1CCOc1ccc(F)cc1)c1cccnc1 [Ex 129]			0.6	
NC(=O)c1ccc(O)c(CCOc2ccc(F)cc2)c1 [ex 163]		6		minimal effective dose ([2]; S = SOURIS, diuretic activity): 25 mg/kg
CC(=O)Oc1c(CCOc2ccc(F)cc2)cccc1C(C)C [Ex 81]			1	
CCCc1cccc(CCOc2ccc(F)cc2)c1O [Ex 86]			1.55	
CCOC(=O)c1ccc(OCCc2ccccc2O)cc1 [Ex 90]			0.5	
Oc1cccc(CCOc2ccc(F)cc2)c1 [Ex 174]			0.4	
Cc1cccc(C)c1NC(=O)c1cc(S(N)(=O)=O)c(Cl)cc1O [XIPAMIDE, reference compound]	25			
CC(C)(C)c1ccc(O)c(CCOc2ccc(F)cc2)c1 [Ex 52]			0.75	
Oc1ccc2ccccc2c1CCOc1ccc(F)cc1 [ex 48]		25		minimal effective dose ([2]; S = SOURIS, diuretic activity): 100 mg/kg
O=P(O)(O)Oc1ccccc1CCOc1ccc(F)cc1 [ex 134]				EFFET SUR L'ECHANGEUR D'ANIONS IC 50 [1]: Non actif; minimal effective dose [2]: 25 mg/kg; minimal effective dose ([3]; Rattus norvegicus): 6 mg/kg; EFFET SUR LE COTRANSPORT Na-K IC 50 ([4]; human erythrocytes): Non actif; IC50 ([5]; Rattus norvegicus, Platelet, read-out: M à 50): 1.3 mM; IC50 ([5]; Rattus norvegicus, Platelet, read-out: V à 50): 1.5 mM
Cc1ccc(O)c(CCOc2ccc(F)cc2)c1 [Ex 54]				M à 50 ([5]; in vitro, aggregating agent ADP, rat platelet-rich plasma, 37°, M not defined in the text, mM printed only in the TICLOPIDINE line): inactif
CC(=O)NCCCCCC(=O)Oc1ccccc1CCOc1ccc(F)cc1 [ex 139]		25		minimal effective dose ([2]; S = SOURIS, diuretic activity): 25 mg/kg
Oc1ccc(O)c(CCOc2ccccc2)c1 [ex 42]	12	12	1.2	Pouvoir diurétique en % ([2]; S = SOURIS): Inactif; Rapport Na/K en % ([2]; S = SOURIS): Inactif; IC50 [4, 6]: 40 µM
CC(C)c1ccc(O)c(CCOc2ccc(F)cc2)c1 [Ex 82]			0.55	
COc1ccc(O)c(CCOc2ccc(Cl)cc2)c1 [ex 26]	40	50		minimal effective dose ([2]; S = SOURIS, diuretic activity): 100 mg/kg; IC50 [4, 6]: 70 µM
Oc1ccccc1CCOc1cccc2ccccc12 [Ex 58]			0.6	
Oc1ccc(OCCc2ccccc2O)cc1 [Ex 84]			0.75	
